PMC5075677 (Medical Gas Research, 2016)
Substitutions are numbered along the chain they refer to. pIC50: −log10 of the molar value. Structures can show the parent of a compound that is named as a salt.

Columns and labels:
[1] = target: T1, heme oxygenase-2 (Homo sapiens, UniProt P30519); format: biochemical
T1 sequence (P30519 1-316): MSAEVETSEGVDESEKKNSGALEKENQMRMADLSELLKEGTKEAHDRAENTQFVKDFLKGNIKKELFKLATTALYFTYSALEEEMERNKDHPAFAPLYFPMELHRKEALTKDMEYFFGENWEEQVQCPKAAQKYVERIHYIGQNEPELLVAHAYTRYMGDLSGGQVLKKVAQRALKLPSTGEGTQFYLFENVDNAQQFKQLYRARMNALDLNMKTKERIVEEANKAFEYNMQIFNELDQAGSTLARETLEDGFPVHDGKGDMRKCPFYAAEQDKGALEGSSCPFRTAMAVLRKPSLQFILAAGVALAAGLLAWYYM

[2] = target: T2, heme oxygenase-2 (Homo sapiens, UniProt P30519, C265A/C282A); format: biochemical
T2 sequence (P30519 1-316 C265A/C282A): T1 sequence (P30519 1-316) with C265A, C282A

- pIC50 [1]: 4.70
- pIC50 [2]: 4.54
Structure (SMILES): c1ccc(CCn2c(CN3CCCC3)nc3ccccc32)cc1 [QC-2350, 1-(2-phenylethyl)-2-(pyrrolidin-1-ylmethyl)-1H-benzimidazole dihydrochloride]
